According to paper PMC12377202, “Design, synthesis, and cytotoxic evaluation of quinazoline-based derivatives as VEGER-2 inhibitors: comparative study against EGFR kinase activity, induction of apoptosis, and molecular docking study” (RSC Advances, 2025):

Tests used:
caspase-9 = assay: Caspase-9 expression level in HepG-2 cells; assay type: cell-based, human; settings: for Caspase-9 ± SE: HepG-2, at IC50 concentrations, control 11.01
Procedure: (§1) All synthesized compounds were tested at their cytotoxic concentrations in HepG-2 cells for analysis of gene expression levels of apoptotic markers caspase-3, caspase-9, TNF-α, and IL-6 proteins, and only two active compounds were tested for BAX and Bcl-2 proteins.
(§2) through Flow cytometric analysis.
(§3) Pellets were collected again and incubated with
(§4) Total RNA from vehicle-treated
(§5) (Thermo Scientific, USA).
(§6) All experiments were performed in […]

Bcl-2 = Bcl-2 gene expression in HepG-2 cells; assay type: cell-based, human
Procedure: as §1, §2, §3, §4, §5, §6

HepG-2 = assay: MTT anti-proliferative assay, HepG-2; assay type: cell-based, human; settings: Homo sapiens, HepG2
BAX/Bcl-2 = BAX/Bcl-2 ratio in HepG-2 cells; assay type: cell-based, human
Procedure: as §1, §2, §3, §4, §5, §6

TNF-alpha = TNF-alpha level in HepG-2 cells; assay type: cell-based, human; settings: control 43.48
Procedure: as §1, §2, §3, §4, §5, §6

EGFR = EGFR (Homo sapiens, UniProt P00533); assay: EGFR kinase inhibition assay (ELISA kit)
MCF-7 = assay: MTT anti-proliferative assay, MCF-7; assay type: cell-based, human; settings: Homo sapiens, MCF7
IL-6R = IL-6R level in HepG-2 cells; assay type: cell-based, human; settings: control 44.10
Procedure: as §1, §2, §3, §4, §5, §6

caspase-3 = assay: Caspase-3 expression level in HepG-2 cells; assay type: cell-based, human; settings: for Caspase-3 ± SE: HepG-2, at IC50 concentrations, control 0.460
Procedure: as §1, §2, §3, §4, §5, §6

K-562 = assay: MTT anti-proliferative assay, K-562; assay type: cell-based, human; settings: Homo sapiens, K562
BAX = BAX gene expression in HepG-2 cells; assay type: cell-based, human
Procedure: as §1, §2, §3, §4, §5, §6

VEGFR-2 = VEGFR-2 (Homo sapiens, UniProt P35968); assay: In vitro VEGFR-2 inhibitory assay (ELISA kit); settings: VEGFR-2 kinase
Sequence of VEGFR-2 (P35968 20-1356): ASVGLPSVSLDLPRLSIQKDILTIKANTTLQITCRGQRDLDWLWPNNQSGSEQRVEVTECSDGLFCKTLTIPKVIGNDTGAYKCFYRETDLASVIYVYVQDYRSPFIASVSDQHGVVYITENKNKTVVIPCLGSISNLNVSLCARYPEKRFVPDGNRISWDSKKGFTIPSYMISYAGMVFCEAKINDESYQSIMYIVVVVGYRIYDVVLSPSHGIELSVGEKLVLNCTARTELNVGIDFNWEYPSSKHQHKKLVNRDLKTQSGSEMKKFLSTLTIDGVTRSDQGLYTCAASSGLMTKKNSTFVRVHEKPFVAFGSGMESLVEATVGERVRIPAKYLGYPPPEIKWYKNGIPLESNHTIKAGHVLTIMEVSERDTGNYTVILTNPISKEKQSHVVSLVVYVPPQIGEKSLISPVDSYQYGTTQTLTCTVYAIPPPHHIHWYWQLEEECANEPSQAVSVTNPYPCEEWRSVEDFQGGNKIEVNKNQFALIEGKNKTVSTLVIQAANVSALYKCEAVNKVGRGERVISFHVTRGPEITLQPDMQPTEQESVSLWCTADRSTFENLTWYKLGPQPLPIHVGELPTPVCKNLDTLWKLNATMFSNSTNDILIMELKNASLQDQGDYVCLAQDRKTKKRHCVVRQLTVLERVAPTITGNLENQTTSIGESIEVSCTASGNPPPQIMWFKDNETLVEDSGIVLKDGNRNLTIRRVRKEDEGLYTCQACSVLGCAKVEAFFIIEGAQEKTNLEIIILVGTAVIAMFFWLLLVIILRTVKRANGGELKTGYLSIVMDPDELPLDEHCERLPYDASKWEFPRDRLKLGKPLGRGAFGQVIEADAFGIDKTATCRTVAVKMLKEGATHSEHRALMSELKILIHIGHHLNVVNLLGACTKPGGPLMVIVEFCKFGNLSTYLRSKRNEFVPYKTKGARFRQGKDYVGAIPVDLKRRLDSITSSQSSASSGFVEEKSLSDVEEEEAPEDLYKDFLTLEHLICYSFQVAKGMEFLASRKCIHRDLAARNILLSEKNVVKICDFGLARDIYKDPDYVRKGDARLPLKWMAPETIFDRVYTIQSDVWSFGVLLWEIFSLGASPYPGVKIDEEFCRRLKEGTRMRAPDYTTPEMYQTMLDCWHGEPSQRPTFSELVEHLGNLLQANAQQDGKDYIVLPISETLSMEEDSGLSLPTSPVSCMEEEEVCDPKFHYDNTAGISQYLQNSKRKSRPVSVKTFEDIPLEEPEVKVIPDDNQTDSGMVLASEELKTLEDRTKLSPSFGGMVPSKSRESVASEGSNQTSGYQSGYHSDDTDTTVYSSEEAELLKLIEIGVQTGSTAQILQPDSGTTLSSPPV

Sequence of EGFR (P00533 25-1210): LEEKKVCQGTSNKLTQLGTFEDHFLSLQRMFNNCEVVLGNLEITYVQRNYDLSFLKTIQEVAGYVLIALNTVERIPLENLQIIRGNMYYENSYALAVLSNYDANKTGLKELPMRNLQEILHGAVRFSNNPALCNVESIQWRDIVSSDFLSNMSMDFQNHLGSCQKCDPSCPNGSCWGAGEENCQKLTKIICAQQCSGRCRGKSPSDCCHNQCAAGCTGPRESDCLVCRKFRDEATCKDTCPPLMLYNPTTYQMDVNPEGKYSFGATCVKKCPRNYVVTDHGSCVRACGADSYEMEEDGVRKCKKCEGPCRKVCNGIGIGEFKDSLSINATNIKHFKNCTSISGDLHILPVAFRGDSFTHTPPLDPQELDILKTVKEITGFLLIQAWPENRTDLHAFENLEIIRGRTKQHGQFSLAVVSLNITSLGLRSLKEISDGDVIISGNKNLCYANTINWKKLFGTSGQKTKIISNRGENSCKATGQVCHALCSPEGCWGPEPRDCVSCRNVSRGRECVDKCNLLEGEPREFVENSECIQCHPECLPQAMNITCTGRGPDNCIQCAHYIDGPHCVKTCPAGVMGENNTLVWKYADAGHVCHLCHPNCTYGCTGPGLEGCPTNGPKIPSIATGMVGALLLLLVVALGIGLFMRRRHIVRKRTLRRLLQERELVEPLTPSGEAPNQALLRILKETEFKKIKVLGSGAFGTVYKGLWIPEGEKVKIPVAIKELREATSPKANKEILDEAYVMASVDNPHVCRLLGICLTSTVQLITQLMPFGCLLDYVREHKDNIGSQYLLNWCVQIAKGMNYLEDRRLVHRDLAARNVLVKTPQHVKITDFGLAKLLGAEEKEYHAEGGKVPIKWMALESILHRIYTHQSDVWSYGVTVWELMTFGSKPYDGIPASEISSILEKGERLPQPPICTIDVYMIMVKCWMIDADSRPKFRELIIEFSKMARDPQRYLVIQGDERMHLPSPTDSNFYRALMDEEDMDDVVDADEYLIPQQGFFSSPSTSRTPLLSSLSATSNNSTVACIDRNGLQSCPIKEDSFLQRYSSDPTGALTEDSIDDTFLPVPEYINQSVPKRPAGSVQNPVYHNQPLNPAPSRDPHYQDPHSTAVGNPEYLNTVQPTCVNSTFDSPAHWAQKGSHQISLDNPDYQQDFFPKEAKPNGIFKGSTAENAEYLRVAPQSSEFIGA

`O=C(Cn1cnc2cc([N+](=O)[O-])ccc2c1=O)Nc1ccccc1` [9a, 2-(7-Nitro-4-oxoquinazolin-3(4H)-yl)-N-phenylacetamide] was tested, and the “Caspase-9 ± SE” value (caspase-9) was 30.57 ± 3.39 ng/L, the “Caspase-9 ± SE” value (caspase-9; listed as N1) was 30.57 ng/L and the “caspase-9 expression level, fold increase” value (caspase-9; HepG-2, vs control cells) was 2.77 fold. For the same compound, the “fold reduction in Bcl-2 expression level” value (Bcl-2; HepG-2, vs control) was 2.8 fold, the Bcl-2 expression level (Bcl-2; HepG-2, control 3.49) was 1.23 fold change and the “Gene expression (fold change) Bcl-2” value (Bcl-2; HepG-2, control 3.4983) was 1.2368 ± 0.30 fold change. It also gave a viability at 0.195 µg/mL (HepG-2; HepG-2, 0.195 ug/ml) of 45.9%, a cytotoxicity at 0.195 µg/mL (HepG-2; HepG-2, 0.195 ug/ml, read-out: Toxicity %) of 54.1% and a viability at 0.391 µg/mL (HepG-2; HepG-2, 0.391 ug/ml) of 29.7%. For the same compound, the cytotoxicity at 0.391 µg/mL (HepG-2; HepG-2, 0.391 ug/ml, read-out: Toxicity %) was 70.3%, the viability at 0.781 µg/mL (HepG-2; HepG-2, 0.781 ug/ml) was 21% and the cytotoxicity at 0.781 µg/mL (HepG-2; HepG-2, 0.781 ug/ml, read-out: Toxicity %) was 79%. The viability at 1.563 µg/mL (HepG-2; HepG-2, 1.563 ug/ml) was 12.7%, the cytotoxicity at 1.563 µg/mL (HepG-2; HepG-2, 1.563 ug/ml, read-out: Toxicity %) was 87.3% and the viability at 3.125 µg/mL (HepG-2; HepG-2, 3.125 ug/ml) was 9.56%. The cytotoxicity at 3.125 µg/mL (HepG-2; HepG-2, 3.125 ug/ml, read-out: Toxicity %) was 90.4%, the viability at 6.25 µg/mL (HepG-2; HepG-2, 6.25 ug/ml) was 6.96% and the cytotoxicity at 6.25 µg/mL (HepG-2; HepG-2, 6.25 ug/ml, read-out: Toxicity %) was 93%. It also gave a viability at 12.5 µg/mL (HepG-2; HepG-2, 12.5 ug/ml) of 6.04%, a cytotoxicity at 12.5 µg/mL (HepG-2; HepG-2, 12.5 ug/ml, read-out: Toxicity %) of 94% and a viability at 25 µg/mL (HepG-2; HepG-2, 25 ug/ml) of 5.71%. The cytotoxicity at 25 µg/mL (HepG-2; HepG-2, 25 ug/ml, read-out: Toxicity %) was 94.3%, the IC50 (HepG-2; MTT, HepG-2, read-out: Cytotoxicity against cancer cells IC50 HepG-2) was 187.1 ± 1.7 nM and the “Gene expression (fold change) BAX/Bcl-2 ratio” value (BAX/Bcl-2; control 0.1260) was 2.1544 ± 0.96. The BAX/Bcl-2 ratio (BAX/Bcl-2; control […]) was 2.15, the “TNF-alpha ±SE” value (TNF-alpha; HepG-2, at IC50 concentrations) was 23.6 ± 1.35 ng/L and the “TNF-alpha ±SE” value (TNF-alpha; raw data, HepG2) was 9.13 ng/L. For the same compound, the Activity % (EGFR; HepG2) was 16.297%, the Inhibition % (EGFR; HepG2) was 83.703% and the Activity % (EGFR; K-562) was 21.954%. It also gave an Inhibition % (EGFR; K-562) of 78.046%, an Activity % (EGFR; MCF7) of 19.563% and an Inhibition % (EGFR; MCF7) of 80.437%. For the same compound, the viability at 0.195 µmol (MCF-7; MCF-7, 0.195 umol) was 56.6%, the cytotoxicity at 0.195 µmol (MCF-7; MCF-7, 0.195 umol, read-out: Toxicity %) was 43.4% and the viability at 0.391 µmol (MCF-7; MCF-7, 0.391 umol) was 41.8%. For the same compound, the cytotoxicity at 0.391 µmol (MCF-7; MCF-7, 0.391 umol, read-out: Toxicity %) was 58.2%, the viability at 0.781 µmol (MCF-7; MCF-7, 0.781 umol) was 27.6% and the cytotoxicity at 0.781 µmol (MCF-7; MCF-7, 0.781 umol, read-out: Toxicity %) was 72.4%. The viability at 1.563 µmol (MCF-7; MCF-7, 1.563 umol) was 13.5%, the cytotoxicity at 1.563 µmol (MCF-7; MCF-7, 1.563 umol, read-out: Toxicity %) was 86.5% and the viability at 3.125 µmol (MCF-7; MCF-7, 3.125 umol) was 9.94%. For the same compound, the cytotoxicity at 3.125 µmol (MCF-7; MCF-7, 3.125 umol, read-out: Toxicity %) was 90.1%, the viability at 6.25 µmol (MCF-7; MCF-7, 6.25 umol) was 8.66% and the cytotoxicity at 6.25 µmol (MCF-7; MCF-7, 6.25 umol, read-out: Toxicity %) was 91.3%. For the same compound, the viability at 12.5 µmol (MCF-7; MCF-7, 12.5 umol) was 6.99%, the cytotoxicity at 12.5 µmol (MCF-7; MCF-7, 12.5 umol, read-out: Toxicity %) was 93% and the viability at 25 µmol (MCF-7; MCF-7, 25 umol) was 6.42%. For the same compound, the cytotoxicity at 25 µmol (MCF-7; MCF-7, 25 umol, read-out: Toxicity %) was 93.6%, the IC50 (MCF-7; MTT, MCF-7, read-out: Cytotoxicity against cancer cells IC50 MCF-7) was 282.4 ± 1.4 nM and the “IL-6R ± SE” value (IL-6R; HepG-2, at IC50 concentrations) was 26.0 ± 0.97 ng/L. The “IL-6 ±SE” value (IL-6R; raw data, HepG2) was 14.73 ng/L, the “Caspase-3 ± SE” value (caspase-3) was 0.98 ± 0.04 ng/mL and the “Caspase-3 ± SE” value (caspase-3; listed as N1) was 0.98 ng/mL. For the same compound, the “caspase-3 expression level, fold increase” value (caspase-3; HepG-2, vs control cells) was 2.1 fold, the viability at 0.195 µmol (K-562; K-562, 0.195 umol) was 66.6% and the cytotoxicity at 0.195 µmol (K-562; K-562, 0.195 umol, read-out: Toxicity %) was 33.4%. The viability at 0.391 µmol (K-562; K-562, 0.391 umol) was 49.6%, the cytotoxicity at 0.391 µmol (K-562; K-562, 0.391 umol, read-out: Toxicity %) was 50.4% and the viability at 0.781 µmol (K-562; K-562, 0.781 umol) was 30.8%. The cytotoxicity at 0.781 µmol (K-562; K-562, 0.781 umol, read-out: Toxicity %) was 69.2%, the viability at 1.563 µmol (K-562; K-562, 1.563 umol) was 16.5% and the cytotoxicity at 1.563 µmol (K-562; K-562, 1.563 umol, read-out: Toxicity %) was 83.5%. It also gave a viability at 3.125 µmol (K-562; K-562, 3.125 umol) of 8.91%, a cytotoxicity at 3.125 µmol (K-562; K-562, 3.125 umol, read-out: Toxicity %) of 91.1% and a viability at 6.25 µmol (K-562; K-562, 6.25 umol) of 8.78%. For the same compound, the cytotoxicity at 6.25 µmol (K-562; K-562, 6.25 umol, read-out: Toxicity %) was 91.2%, the viability at 12.5 µmol (K-562; K-562, 12.5 umol) was 7.76% and the cytotoxicity at 12.5 µmol (K-562; K-562, 12.5 umol, read-out: Toxicity %) was 92.2%. For the same compound, the viability at 25 µmol (K-562; K-562, 25 umol) was 7.02%, the cytotoxicity at 25 µmol (K-562; K-562, 25 umol, read-out: Toxicity %) was 93% and the IC50 (K-562; MTT, K-562, read-out: Cytotoxicity against cancer cells IC50 K-562) was 385.8 ± 3.2 nM. For the same compound, the “fold increase in BAX expression level” value (BAX; HepG-2, vs control) was 6 fold, the BAX expression level (BAX; HepG-2, control 0.44) was 2.65 fold change and the “Gene expression (fold change) BAX” value (BAX; HepG-2, control 0.4448) was 2.6533 ± 0.40 fold change. It also gave an Activity % (VEGFR-2; HepG2) of 14.760%, an Inhibition % (VEGFR-2; HepG2) of 85.240% and an Activity % (VEGFR-2; K-562) of 35.983%. For the same compound, the Inhibition % (VEGFR-2; K-562) was 64.017%, the Activity % (VEGFR-2; MCF7) was 19.964% and the Inhibition % (VEGFR-2; MCF7) was 80.036%.
